Measured values from BindingDB's records for PubMed 7996470 (University of Michigan, 1994).

How the values were obtained:
[1] = molecular target: T1, Alpha-2C adrenergic receptor (Homo sapiens, UniProt P18825)
T1 sequence (P18825 whole entry): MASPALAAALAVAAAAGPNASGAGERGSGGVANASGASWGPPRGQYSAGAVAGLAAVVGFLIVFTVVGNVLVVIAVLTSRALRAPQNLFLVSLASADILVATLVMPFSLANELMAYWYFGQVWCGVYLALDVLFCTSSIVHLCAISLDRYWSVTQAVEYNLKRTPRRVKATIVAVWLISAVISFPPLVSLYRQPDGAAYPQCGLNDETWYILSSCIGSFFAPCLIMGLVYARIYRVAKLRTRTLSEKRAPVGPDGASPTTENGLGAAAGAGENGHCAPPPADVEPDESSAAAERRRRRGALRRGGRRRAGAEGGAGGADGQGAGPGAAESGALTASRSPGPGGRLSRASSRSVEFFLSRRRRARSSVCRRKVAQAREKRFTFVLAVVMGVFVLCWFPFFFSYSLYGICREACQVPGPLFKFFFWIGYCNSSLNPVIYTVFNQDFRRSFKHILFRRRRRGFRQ

[2] = molecular target: T2, Alpha-2A adrenergic receptor (Homo sapiens, UniProt P08913)
T2 sequence (P08913 whole entry): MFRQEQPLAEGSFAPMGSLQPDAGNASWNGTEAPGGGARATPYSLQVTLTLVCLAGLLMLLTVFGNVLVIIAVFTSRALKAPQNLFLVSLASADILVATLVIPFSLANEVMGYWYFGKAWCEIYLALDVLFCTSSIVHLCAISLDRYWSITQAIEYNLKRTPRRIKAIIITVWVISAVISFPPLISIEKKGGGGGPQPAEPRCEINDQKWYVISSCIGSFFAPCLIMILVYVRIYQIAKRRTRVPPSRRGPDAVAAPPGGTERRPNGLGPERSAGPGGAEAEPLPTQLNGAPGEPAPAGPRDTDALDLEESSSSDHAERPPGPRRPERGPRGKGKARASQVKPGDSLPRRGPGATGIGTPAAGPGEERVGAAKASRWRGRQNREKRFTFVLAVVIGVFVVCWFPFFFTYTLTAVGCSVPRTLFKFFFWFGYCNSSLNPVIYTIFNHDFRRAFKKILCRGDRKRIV

Structure (SMILES)	Ki [1] [nM]	Ki [2] [nM]
COc1cc(N)c(Cl)cc1C(=O)NC1CC2CCC(C1)N2C (centres undefined) [4-amino-5-chloro-2-methoxy-N-(8-methyl-8-azabicyclo[3.2.1]octan-3-yl)benzamide]	150	
O=C1NCN(c2ccccc2)C12CCN(CC1COc3ccccc3O1)CC2 (centres undefined) [8-(2,3-Dihydro-benzo[1,4]dioxin-2-ylmethyl)-1-phenyl-1,3,8-triaza-spiro[4.5]decan-4-one]	1.04	54.3
CC1c2ccccc2CN1CC1=NCCN1 (centres undefined) [NSC_121850]		5.68

The remaining lines, values ahead:

Ki [1] [nM]	Ki [2] [nM]	Structure (SMILES)
31.8		COc1ccccc1N1CCN(CCC2C(=O)c3ccccc3C(C)(C)C2=O)CC1 (centres undefined) [NSC_122211]
3.18	14.6	COc1cccc(OC)c1OCCNCC1Oc2ccccc2OC1c1ccccc1 (centres undefined) [NSC_185453]
1.78	0.62	COC1(C2=NCCN2)COc2ccccc2O1 (centres undefined) [RX821002]
